# Measured values published in publication PMC8205030, “Methoxy and bromo scans on N-(5-methoxyphenyl) methoxybenzenesulphonamides reveal potent cytotoxic compounds, especially against the human breast adenocarcinoma MCF7 cell line” (Journal of Enzyme Inhibition and Medicinal Chemistry, 2021).
# Legend:
# [1] = tested on: HEK293 (human embryonic kidney) cells; test: Cell growth assay (XTT), non-tumorigenic HEK293; assay type: cell-based
# Method: The presence of mycoplasma was routinely checked with MycoAlert kit (Lonza-Cambrex) and only mycoplasma-free cells were used in the experiments. Tumour cell lines were kindly provided by Dr Faustino Mollinedo from Centro de Investigaciones Biológicas Margarita Salas, Madrid, Spain. To determine cell growth, cells in exponential growth phase were seeded (100 µL/well in 96-well plates) with appropriate cell concentration (1.5 × 10^4 cells/mL for MCF7, HeLa and HEK-293 and 3 × 10^4 cells/mL for HT-29) in complete DMEM or RPMI 1640 medium (see above) at 37 °C and 5% CO2 atmosphere. After 24 h incubation, to allow cells to attach to the plates, all compounds were added at 1 µM concentration (10 µL/well in 96-well plates) and the effect on the proliferation was evaluated 72 h post-treatment. Compounds showing antiproliferative effects at tested concentration were selected for IC50 calculation (50% inhibitory concentration compared to the untreated controls) from 10^−5 to 10^−10 M concentration. Nonlinear curves fitting the experimental data were carried out for each compound. […] A freshly prepared mixture solution of XTT labelling reagent with 0.02% (v/v) PMS (N-methyl-dibenzopyrazine methyl sulfate) electron coupling reagent was added to cells (50 µL/well in 96-well plates, the total volume of 160 µL/well) and were incubated during the corresponding time according to each cell line (4 h for MCF7 and HeLa and 6 h for HT-29 and HEK-293) in a humidified atmosphere (37 °C, 5% CO2). The absorbance of the formazan product generated was measured at a test wavelength of 450 nm using a multi-well plate reader (Ultra Evolution, Tecan, Männedorf, Suiza). Compounds were dissolved in DMSO and the final solvent concentrations never exceeded 0.5% (v/v). The control wells included treated cells with 0.5% (v/v) DMSO and the positive control. 10 µM verapamil was included as a control for the HT-29 cell line. Measurements were performed in triplicate, and each experiment was repeated three times.
# [2] = tested on: HeLa (human cervical carcinoma) cells; test: Cell growth assay (XTT), HeLa; assay type: cell-based; details: 72 h drug exposure, read-out: Antiproliferative activity IC50 HeLa
# Method in brief: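 Cells (1.5 × 10^4 cells/mL for MCF7, HeLa, HEK293; 3 × 10^4 cells/mL for HT-29) attached 24 h, then treated 72 h at 37 °C, 5% CO2. Screened at 1 µM; IC50 versus untreated controls from 10^−5 to 10^−10 M by nonlinear fit. XTT/PMS absorbance at 450 nm after 4 h (MCF7, HeLa) or 6 h (HT-29, HEK293); HT-29 with 10 µM verapamil.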
# HT-29 cells = test: Apoptotic cell death quantification (Annexin V-FITC/PI), HT-29; assay type: cell-based, human; details: for Early apoptosis / Late apoptosis / Live (AnV–/PI–) / Necrosis: 72 h; for Apoptotic response: HT-29, 72 h
# Method: (§1) MCF7, HeLa, and HT-29 apoptotic cells were quantified using an Annexin V-FITC/PI apoptosis detection kit (Immunostep, Salamanca, Spain) according to the manufacturer’s guidelines. 1.5 ml/well of cells in the exponential growth phase at 2 × 10^4 cells/mL were seeded onto 12-well plates and left to attach overnight. After 24 h incubation, cells were treated with compound 25 at 87.5 or 175 nM. 72 h post-treatment, attached and floating cells of treated and untreated wells were collected, centrifuged, resuspended in the Annexin V binding buffer, and stained with Annexin V-FITC/PI. Cells were then incubated in darkness at room temperature for 15 min and a total of 30,000 cells were acquired and analysed using the BD Accuri™ C6 Plus Flow Cytometer and Software (version 1.0.264.21, BD Biosciences, San José, CA, USA), respectively. Compounds were dissolved in DMSO and the final solvent concentrations never exceeded 0.5% (v/v). Control wells included cells with 0.5% (v/v) DMSO.
# MCF7 cells = test: Apoptotic cell death quantification (Annexin V-FITC/PI), MCF7; assay type: cell-based, human; details: 72 h
# Method: as §1
# p-62 in MCF7 cells = test: Western blot of autophagosome marker p-62, MCF7; assay type: cell-based, human; details: MCF7, 175 nM, 24 h
# Method: MCF7, HeLa and HT-29 cells in an exponential growth phase at 2 × 10^4 cells/mL were seeded in Petri dishes (20 × 100 mm) (10 ml/dish). After 24 h incubation, cells were treated with compound 25 at 175 nM, and the levels of p-62 in treated and untreated cells were measured at 24 h post-treatment. The culture medium was removed, cells were washed with PBS and resuspended in 1 ml lysis buffer (50 mM Tris, 130 mM NaCl, 1 mM EDTA, 1% Triton X-100) containing protease inhibitors (Complete, Roche Applied Science, Indianapolis). Cells were harvested and incubated with lysis buffer for 30 min at 4 °C in constant agitation. Cell extracts were centrifuged at 12,000 rpm for 15 min at 4 °C and the supernatants were stored at −80 °C. Protein concentrations were determined using Bradford (BioRad, Hercules, CA) method taking BSA (Bovine Serum Albumin) as standard. Protein extracts were used for electrophoresis mixing with loading buffer (4% SDS, 0.05% bromophenol blue, 20% glycerine, 2% β-mercaptoethanol, and Tris 100 mM at pH 6.8). Proteins were then denatured at 95 °C for 7 min. Protein samples (50 μg/lane) were subjected to electrophoresis on 8% acrylamide gel and SDS-PAGE running buffer at constant voltage (140 V). Then, acrylamide gels were transferred to a PVDF membrane (Merck Millipore, Burlington, Massachusetts, USA) using a semi-dry transfer system for 30 min at constant voltage (15 V). […]
compound,measurement,setting,value
"COc1ccc(S(=O)(=O)N(CC#N)c2cc(OC)c(Br)cc2OC)cc1 [Compound 25, N-(4-bromo-2,5-dimethoxyphenyl)-N-(cyanomethyl)-4-methoxybenzenesulphonamide]",Selectivity index HEK293 vs HeLa and MCF7 tumour cells,[1],0.5 to 2 fold
same,IC50,"[1]; Homo sapiens, HEK293, non-tumorigenic cell line, 72 h, XTT, read-out: Antiproliferative activity IC50 HEK293",45 nM
same,IC50,[2],36 nM
same,Early apoptosis,"HT-29 cells; HT-29, 87.5 nM",16.4%
same,Late apoptosis,"HT-29 cells; HT-29, 87.5 nM",6.8%
same,Live (AnV–/PI–),"HT-29 cells; HT-29, 87.5 nM",76.2%
same,Necrosis,"HT-29 cells; HT-29, 87.5 nM",0.7%
same,Early apoptosis,"HT-29 cells; HT-29, 175 nM",20.4%
same,Late apoptosis,"HT-29 cells; HT-29, 175 nM",15.3%
same,Live (AnV–/PI–),"HT-29 cells; HT-29, 175 nM",61.7%
same,Necrosis,"HT-29 cells; HT-29, 175 nM",2.5%
same,Apoptotic response,HT-29 cells; lower end of printed span (87.5 nM),23%
same,Apoptotic response,HT-29 cells; upper end of printed span (175 nM),36%
same,Early apoptosis,"MCF7 cells; MCF7, 87.5 nM",11.7%
same,Late apoptosis,"MCF7 cells; MCF7, 87.5 nM",5.8%
same,Live (AnV–/PI–),"MCF7 cells; MCF7, 87.5 nM",82.1%
same,Necrosis,"MCF7 cells; MCF7, 87.5 nM",0.5%
same,Apoptotic cells,"MCF7 cells; MCF7, 175 nM",33%
same,Early apoptosis,"MCF7 cells; MCF7, 175 nM",23.8%
same,Late apoptosis,"MCF7 cells; MCF7, 175 nM",9.5%
same,Live (AnV–/PI–),"MCF7 cells; MCF7, 175 nM",65.7%
same,Necrosis,"MCF7 cells; MCF7, 175 nM",1.0%
same,Apoptotic cells,"MCF7 cells; MCF7, lowest concentration (87.5 nM)",18%
same,p-62 levels,p-62 in MCF7 cells,decay in p-62 levels
